Assays:
[1] = tested on: GDF8 signaling (GDF pSMAD, MPC11); experiment: AlphaScreen SureFire SMAD3 (p-Ser423/425) assay, inhibition of GDF8 signaling; format: cell-based; details: Mus musculus, MPC-11, p-SMAD-3 (Ser423/425) in cell lysate after GDF8 stimulation
[2] = tested on: TGF-β signaling (TGF-β pSMAD, MPC-11); experiment: AlphaScreen SureFire SMAD3 (p-Ser423/425) assay, inhibition of TGF-β signaling; format: cell-based; details: Mus musculus, p-SMAD-3 (Ser423/425) in cell lysate after TGF-β stimulation
Procedure, shortened: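 Cells in collagen-coated plates were pretreated about 10 minutes with three-fold DMSO serial dilutions of compound, then stimulated with TGF-β. They were lysed with about 25 μL 1× Lysis Buffer. Lysates in 384-well plates were incubated protected from light with Acceptor bead mix for 2 hours and Donor bead mix for 1½ hours. p-SMAD-3 (Ser423/425) was read on Synergy-4 or Enspire using AlphaScreen pSMAD3 settings.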

For `FC(F)(F)Oc1cccc(-c2nn3c(c2-c2ccc4cn[nH]c4c2)CCC3)c1` [Compound 123, 6-(2-(3-Trifluoromethoxyphenyl)-5,6-dihydro-4H-pyrrolo[1,2-b]pyrazol-3-yl)-1H-indazole], the IC50 [1] was 85.3 nM and the IC50 [2] was 190 nM.
Compound `FC(F)(F)c1cccc(-c2nn3c(c2-c2ccc4ncsc4c2)CCC3)c1` [Compound 35, 6-(2-(3-Trifluoromethylphenyl)-5,6-dihydro-4H-pyrrolo[1,2-b]pyrazol-3-yl)benzo[d]thiazole] has an IC50 [1] of 97.9 nM and an IC50 [2] of 350 nM.
`Fc1ccc(-c2nn3c(c2-c2ccc4nccnc4c2)CCC3)c(F)c1` [Compound 96, 6-(2-(2,4-Difluorophenyl)-5,6-dihydro-4H-pyrrolo[1,2-b]pyrazol-3-yl)quinoxaline] gave an IC50 [1] of 156 nM and an IC50 [2] of 668 nM.
For `Fc1cc(F)c(-c2nn3c(c2-c2ccc4nccn4c2)CCC3)cc1F` [Compound 115, 6-(2-(2,4,5-Trifluorophenyl)-5,6-dihydro-4H-pyrrolo[1,2-b]pyrazol-3-yl)imidazo[1,2-a]pyridine], the IC50 [1] was 66.2 nM and the IC50 [2] was 373 nM.
With `Cc1c(F)ccc(-c2nn3c(c2-c2ccc4ncnn4c2)CCC3)c1F` [Compound 173, 6-(2-(2,4-Difluoro-3-methyphenyl)-5,6-dihydro-4H-pyrrolo[1,2-b]pyrazol-3-yl)-[1,2,4]triazolo[1,5-a]pyridine] the IC50 [1] was 131 nM and the IC50 [2] was 335 nM.

— US10822337B2, “TGF-β inhibitorC” (Rigel Pharmaceuticals, Inc., priority 2015, dated 2020)
